“Also recorded” adds a separate entry of the source.
Columns and labels:
[1] = in vitro; settings: human
Procedure: (§1) The cytotoxicity of compound 3 was assessed in vitro using two standard cell lines, HepG2, derived from a human hepatocellular carcinoma, and SH-SY5Y, derived from a human neuroblastoma, both in the presence and absence of excess iron.
(§2) HepG2 cells were maintained at ˜5% CO2, 37° C., and 95% relative humidity in minimal essential media (MEM) supplemented with 10% fetal bovine serum plus 0.1 mM non-essential amino acids, 2 mM L-glutamine, and penicillin/streptomycin. SH-SY5Y cells were maintained at ˜5% CO2, 37° C., and 95% relative humidity in a mixture of minimal essential media (MEM) and F12 K media (1:1, v:v) supplemented with 10% fetal bovine serum plus 0.1 mM non-essential amino acids, 2 mM L-glutamine, and penicillin/streptomycin. The cells were subcultured every two to three days and plated in tissue culture treated opaque white 96-well plates at a density of 1×10^4 cells/well and incubated at ˜5% CO2, 37° C., and 95% relative humidity overnight prior to initiation of the assay.
(§3) A series of DMSO stocks of the test article at 100× of the final concentration were diluted 1:100 with fresh culture media (final DMSO concentration was 1%). The media from the plated cells was removed and replaced with 100 μL of media containing test article or tamoxifen with final concentrations ranging between 0.01 to 1000 μM in triplicate. Wells containing no cells were used as background controls. Tamoxifen was used as a known positive control and DMSO alone was used as a vehicle control. The cells were incubated for four hours at ˜5% CO2, 37° C., and 95% relative humidity.
(§4) Cell viability was determined using a commercially available kit to determine ATP levels by luminescence. Briefly, the buffer and lyophilized substrate from the kit were equilibrated to room temperature. The buffer was used to reconstitute the substrate just prior to addition to the wells of the cell plate (100 μL per well). The plate was placed into the Tecan Infinite M200 plate reader, agitated for 10 minutes followed by a 10 minute wait period, then read using an integration time of 0.5 seconds with no attenuation.
(§5) The mean luminescence from the test article treated cells was compared to that treated by DMSO only.

[2] = system: SHSY-5Y cells; assay: in vitro; settings: read-out: LC50 (μM) SHSY-5Y; four hours incubation
Procedure: as §1, §2, §3, §4, §5

[3] = target: MAO-B (Mus musculus (Mouse), UniProt Q8BW75); assay: In vivo MAO-B inhibition in mice after a single i.p. injection; settings: one hour later
Sequence of MAO-B (Q8BW75 whole entry): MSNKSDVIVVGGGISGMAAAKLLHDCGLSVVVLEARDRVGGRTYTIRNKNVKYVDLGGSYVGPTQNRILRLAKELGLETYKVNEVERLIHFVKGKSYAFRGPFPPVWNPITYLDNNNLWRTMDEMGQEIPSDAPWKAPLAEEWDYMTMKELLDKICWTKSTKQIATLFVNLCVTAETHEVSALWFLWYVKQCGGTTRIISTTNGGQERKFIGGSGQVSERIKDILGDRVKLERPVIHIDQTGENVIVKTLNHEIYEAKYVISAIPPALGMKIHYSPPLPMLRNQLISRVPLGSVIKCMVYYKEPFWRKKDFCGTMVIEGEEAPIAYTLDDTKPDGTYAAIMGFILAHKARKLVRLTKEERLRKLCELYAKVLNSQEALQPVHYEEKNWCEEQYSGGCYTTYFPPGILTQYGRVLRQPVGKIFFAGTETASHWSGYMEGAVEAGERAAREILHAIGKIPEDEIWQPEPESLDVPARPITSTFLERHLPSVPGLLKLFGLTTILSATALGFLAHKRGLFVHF
Procedure: (§6) For the MAO-inhibition study, mice (6 mice in each group) were injected intraperitoneally (i.p.) with compound 3 at the dosage of 5 or 10 mg/kg; or with M30 at the dosage of 10 mg/kg. Control mice received saline (0.1 mL) i.p. One hour later the mice were killed by cervical dislocation, while striatum and small intestine were removed rapidly and frozen in liquid nitrogen for further analysis. FIGS. 3 and 4 show MAO-A/MAO-B in vivo activity of compound 3 compared to the activity of M30. FIG. 3 presents an MAO inhibition in striatum, and FIG. 4 presents an MAO inhibition in intestine. The percent inhibition was computed based on comparison to control animals.

[4] = target: MAO-A (Mus musculus (Mouse), UniProt Q64133); format: in vivo, mice
Sequence of MAO-A (Q64133 whole entry): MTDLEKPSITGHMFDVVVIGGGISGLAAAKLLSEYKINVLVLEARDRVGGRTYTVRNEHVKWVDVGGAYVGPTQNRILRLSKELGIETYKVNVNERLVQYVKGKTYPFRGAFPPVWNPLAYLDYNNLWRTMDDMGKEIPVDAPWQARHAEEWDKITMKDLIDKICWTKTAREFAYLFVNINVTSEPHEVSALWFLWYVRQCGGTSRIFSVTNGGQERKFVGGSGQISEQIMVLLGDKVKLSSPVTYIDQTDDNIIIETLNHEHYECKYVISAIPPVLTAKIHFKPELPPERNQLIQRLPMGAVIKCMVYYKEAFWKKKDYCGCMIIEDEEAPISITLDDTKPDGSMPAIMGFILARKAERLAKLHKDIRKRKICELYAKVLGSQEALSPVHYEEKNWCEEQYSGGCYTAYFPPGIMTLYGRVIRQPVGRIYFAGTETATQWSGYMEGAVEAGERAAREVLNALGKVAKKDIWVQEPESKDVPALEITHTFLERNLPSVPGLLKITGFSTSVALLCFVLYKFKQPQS
Procedure: as §6

[5] = Follow-up stability experiment at 37° C. in PBS; format: physicochemical
Procedure: (§7) Using high pressure liquid chromatography (HPLC), the stability of each of the tested compounds was determined by following its respective chemical character over time in either phosphate buffered saline (PBS) and/or 0.85% saline solution (sodium chloride). In each case, 0.5 mM of the tested compound in PBS or saline solution was incubated at 25° C. or at 37° C. for 20 hours or, in some cases, up to two days (48 hours).
In addition, in a follow-up experiment the instability of M30, and the stability of compounds 3, 7 and 8 was also confirmed at 37° C. in PBS, Table 2, below.

[6] = Plasma stability in vitro in human blood plasma (LC-MS/MS); format: in vitro ADME; settings: 10 μM, ~37° C.
Procedure: The stability of the compound 3 was evaluated in human blood plasma. Human plasma was purchased from a commercial source (Bioreclamation, Inc., East Meadow, N.Y.). The plasma was prepared from blood collected using sodium fluoride/potassium oxalate as the anticoagulant. The plasma was stored at −20° C. prior to use. The plasma, once thawed for use, was centrifuged at ˜4000 rpm for five minutes and transferred to a new tube to remove any precipitate. The pH of the plasma was adjusted to 7.4. Compound 3 was added to plasma samples to achieve a final concentration of 10 μM and distributed into the required number of low retention tubes (triplicate tubes for each timepoint) for incubation at ˜37° C. in a water bath. Incubations were terminated at 0, 1, and 6 hours by the addition of three volumes of cold acetonitrile. The supernate after centrifugation was subjected to LC-MS/MS analysis. Stability of the test article was assessed by comparison of the peak area at one and six hours to that at time zero.

[7] = Stability in aqueous solution (PBS or saline) followed by HPLC; format: physicochemical; settings: for Amount of compound remaining (%): 25° C., 0.5 mM
Procedure: as §7

C#CCN(C)CCc1ccc(O)c2ncccc12 [Compound 3, 5-[2-(methyl-2-propyn-1-ylamino)ethyl]-8-quinolinol]
CC50 at 4 h [1]: > 1000 µM
CC50 at 4 h ([1]; LC50 (μM) SHSY-5Y, four hours incubation): 865 µM
CC50 [2]: 885 µM
MAO-B inhibition in striatum ([3]; 5 or 10 mg/kg): inhibited in a dose responsive fashion
MAO-B inhibition in intestine ([3]; small intestine): Reduced inhibition in the intestinal tissue versus striatal tissue
MAO-A inhibition in striatum ([4]; mice, single i.p. injection, 5 or 10 mg/kg, one hour later): inhibited in a dose responsive fashion
MAO-A inhibition in intestine ([4]; mice, single i.p. injection, small intestine, one hour later): Reduced inhibition in the intestinal tissue versus striatal tissue
Penetration of brain tissue ([4]; mouse, in vivo, ip): able to penetrate brain tissue
Amount of compound remaining (%) ([5]; 3 hours): ≧100%
Amount of compound remaining (%) ([5]; 8 hours): 95.7%
Amount of compound remaining (%) ([5]; 24 hours): ≧100%
Amount of compound remaining (%) ([5]; 48 hours): 87.2%
Amount of compound 3 in human blood plasma ([6]; 0 hour, reference time point): 100%
Amount of compound 3 in human blood plasma ([6]; 1 hour): 86%
Amount of compound 3 in human blood plasma ([6]; 6 hours): 93%
Stability in aqueous solution (in words) ([7]; PBS and/or saline solution): highly stable chemically; also recorded: ^+Compound 3 was stable for up to 48 hours at 25 °C in both saline and PBS
Amount of compound remaining (%) ([7]; PBS, 0.5 hours): 100%
Amount of compound remaining (%) ([7]; PBS, 2 hours): 100%
Amount of compound remaining (%) ([7]; PBS, 20 hours): 100%
Amount of compound remaining (%) ([7]; PBS, 48 hours): 100%
Amount of compound remaining (%) ([7]; saline, 0.5 hours): 100%
Amount of compound remaining (%) ([7]; saline, 2 hours): 100%
Amount of compound remaining (%) ([7]; saline, 20 hours): 100%
Amount of compound remaining (%) ([7]; saline, 48 hours): 100%

Reference: patent US9034303B2, “Neuroprotective and neuro-restorative iron chelators and monoamine oxidase inhibitors and uses thereof” (priority 2010, dated 2015)
